Assay results as given in PMC9817970 (Cancers, 2022).

Key:
Assay in all cases: Kinase panel profiling
Format in all cases: biochemical
Settings in all cases: 10 μM ATP
MARK2/PAR-1Ba = molecular target: T1, MARK2/PAR-1Ba (Homo sapiens, UniProt Q7KZI7)
T1 construct: purchased Reaction Biology Corp
Experimental: (§1) Kinase panel profiling was conducted by Reaction Biology Corp. (San Diego, CA, USA). A single dose (1.0 μM) of 6r was tested against 371 recombinant human kinases in the presence of 10 μM ATP.

MEK2 = molecular target: T2, MEK2 (Homo sapiens, UniProt P36507)
T2 construct: purchased Reaction Biology Corp
Experimental: as §1

NIM1 = molecular target: T3, NIM1 (Homo sapiens, UniProt Q8IY84)
T3 construct: purchased Reaction Biology Corp
Experimental: as §1

IKKb/IKBKB = molecular target: T4, IKKb/IKBKB (Homo sapiens, UniProt O14920)
T4 construct: purchased Reaction Biology Corp
T4 sequence (O14920 whole entry): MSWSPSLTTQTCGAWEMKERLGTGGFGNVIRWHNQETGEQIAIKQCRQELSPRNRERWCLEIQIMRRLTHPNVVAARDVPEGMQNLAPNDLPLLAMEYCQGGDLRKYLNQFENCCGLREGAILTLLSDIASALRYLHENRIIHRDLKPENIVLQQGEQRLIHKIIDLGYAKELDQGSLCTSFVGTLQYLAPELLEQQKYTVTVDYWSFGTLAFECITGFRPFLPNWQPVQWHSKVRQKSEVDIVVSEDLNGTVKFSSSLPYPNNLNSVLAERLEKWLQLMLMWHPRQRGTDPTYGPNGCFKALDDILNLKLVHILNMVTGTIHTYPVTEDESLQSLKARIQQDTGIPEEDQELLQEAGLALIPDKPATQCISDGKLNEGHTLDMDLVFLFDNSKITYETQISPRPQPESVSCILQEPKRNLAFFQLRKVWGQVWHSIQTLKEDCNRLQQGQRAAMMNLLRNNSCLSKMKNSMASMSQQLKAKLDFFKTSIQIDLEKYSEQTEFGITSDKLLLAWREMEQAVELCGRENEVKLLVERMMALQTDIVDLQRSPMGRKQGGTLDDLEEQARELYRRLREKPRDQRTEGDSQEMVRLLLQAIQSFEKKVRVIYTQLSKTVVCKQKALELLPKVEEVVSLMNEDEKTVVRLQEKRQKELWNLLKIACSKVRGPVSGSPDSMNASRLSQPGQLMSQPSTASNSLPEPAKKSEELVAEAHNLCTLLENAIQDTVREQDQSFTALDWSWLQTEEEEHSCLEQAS
Experimental: as §1

SIK2 = molecular target: T5, SIK2 (Homo sapiens, UniProt Q9H0K1)
T5 construct: purchased Reaction Biology Corp
T5 sequence (Q9H0K1 whole entry): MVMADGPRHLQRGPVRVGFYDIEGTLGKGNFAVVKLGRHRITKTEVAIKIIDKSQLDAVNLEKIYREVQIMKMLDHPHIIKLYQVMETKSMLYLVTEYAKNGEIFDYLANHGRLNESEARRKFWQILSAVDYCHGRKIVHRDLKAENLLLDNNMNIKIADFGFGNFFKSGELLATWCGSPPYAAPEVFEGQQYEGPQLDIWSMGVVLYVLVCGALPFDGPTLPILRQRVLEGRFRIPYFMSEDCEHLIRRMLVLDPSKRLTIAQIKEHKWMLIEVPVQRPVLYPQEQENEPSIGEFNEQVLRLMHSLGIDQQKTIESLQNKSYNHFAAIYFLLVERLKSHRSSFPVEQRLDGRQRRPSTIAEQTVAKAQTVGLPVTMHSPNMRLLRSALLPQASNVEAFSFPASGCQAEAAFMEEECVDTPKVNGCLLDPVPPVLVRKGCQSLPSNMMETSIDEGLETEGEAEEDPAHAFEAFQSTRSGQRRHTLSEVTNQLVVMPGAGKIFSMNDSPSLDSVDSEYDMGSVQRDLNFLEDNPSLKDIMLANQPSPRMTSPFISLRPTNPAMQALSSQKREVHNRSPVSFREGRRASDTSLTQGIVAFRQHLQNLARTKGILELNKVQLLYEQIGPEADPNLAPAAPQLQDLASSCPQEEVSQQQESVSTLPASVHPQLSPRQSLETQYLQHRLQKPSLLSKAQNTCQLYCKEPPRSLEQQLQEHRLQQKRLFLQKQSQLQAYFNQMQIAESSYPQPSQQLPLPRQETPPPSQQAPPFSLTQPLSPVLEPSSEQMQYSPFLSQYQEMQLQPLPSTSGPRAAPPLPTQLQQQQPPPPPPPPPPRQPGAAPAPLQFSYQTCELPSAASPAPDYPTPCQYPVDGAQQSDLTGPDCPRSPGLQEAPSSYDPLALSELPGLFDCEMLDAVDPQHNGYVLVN
Experimental: as §1

c-MER = molecular target: T6, c-MER (Homo sapiens, UniProt Q12866)
T6 construct: purchased Reaction Biology Corp
Experimental: as §1

MEKK6 = molecular target: T7, MEKK6 (Homo sapiens, UniProt O95382)
T7 construct: purchased Reaction Biology Corp
Experimental: as §1

PAK3 = molecular target: T8, PAK3 (Homo sapiens, UniProt O75914)
T8 construct: purchased Reaction Biology Corp
Experimental: as §1

MEK3 = molecular target: T9, MEK3 (Homo sapiens, UniProt P46734)
T9 construct: purchased Reaction Biology Corp
Experimental: as §1

MAST3 = molecular target: T10, MAST3 (Homo sapiens, UniProt O60307)
T10 construct: purchased Reaction Biology Corp
Experimental: as §1

ERK1 = molecular target: T11, ERK1 (Homo sapiens, UniProt P27361)
T11 construct: purchased Reaction Biology Corp
T11 sequence (P27361 whole entry): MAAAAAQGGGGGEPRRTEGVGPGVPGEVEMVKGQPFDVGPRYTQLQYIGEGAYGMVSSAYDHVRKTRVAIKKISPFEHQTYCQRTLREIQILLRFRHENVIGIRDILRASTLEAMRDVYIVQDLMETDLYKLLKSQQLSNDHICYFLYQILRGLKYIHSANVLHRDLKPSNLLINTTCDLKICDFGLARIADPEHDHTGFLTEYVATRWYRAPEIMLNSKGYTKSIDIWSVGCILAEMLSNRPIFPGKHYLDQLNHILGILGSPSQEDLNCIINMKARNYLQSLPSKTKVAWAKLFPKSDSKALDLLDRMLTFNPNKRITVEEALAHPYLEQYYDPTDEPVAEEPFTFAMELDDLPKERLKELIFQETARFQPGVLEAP
Experimental: as §1

STK39/STLK3 = molecular target: T12, STK39/STLK3 (Homo sapiens, UniProt Q9UEW8)
T12 construct: purchased Reaction Biology Corp
Experimental: as §1

PKCd = molecular target: T13, PKCd (Homo sapiens, UniProt Q05655)
T13 construct: purchased Reaction Biology Corp
T13 sequence (Q05655 whole entry): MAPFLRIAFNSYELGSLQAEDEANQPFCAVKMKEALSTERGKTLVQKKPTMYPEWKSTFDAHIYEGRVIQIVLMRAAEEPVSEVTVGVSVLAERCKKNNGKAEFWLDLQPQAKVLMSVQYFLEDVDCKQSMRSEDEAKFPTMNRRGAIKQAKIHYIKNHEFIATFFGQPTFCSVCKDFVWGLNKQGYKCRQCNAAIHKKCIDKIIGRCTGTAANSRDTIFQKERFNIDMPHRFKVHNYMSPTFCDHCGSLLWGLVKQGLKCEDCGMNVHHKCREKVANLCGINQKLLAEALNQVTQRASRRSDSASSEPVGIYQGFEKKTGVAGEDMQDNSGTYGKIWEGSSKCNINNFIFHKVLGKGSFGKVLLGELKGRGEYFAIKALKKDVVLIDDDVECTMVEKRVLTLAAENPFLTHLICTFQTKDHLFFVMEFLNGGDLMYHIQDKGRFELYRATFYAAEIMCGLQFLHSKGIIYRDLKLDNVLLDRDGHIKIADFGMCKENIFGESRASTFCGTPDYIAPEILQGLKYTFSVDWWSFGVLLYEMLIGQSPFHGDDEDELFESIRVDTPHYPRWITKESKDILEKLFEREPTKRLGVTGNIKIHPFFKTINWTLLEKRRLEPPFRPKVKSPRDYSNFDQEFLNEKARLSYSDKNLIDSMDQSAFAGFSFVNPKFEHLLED
Experimental: as §1

EPHA6 = molecular target: T14, EPHA6 (Homo sapiens, UniProt Q9UF33)
T14 construct: purchased Reaction Biology Corp
Experimental: as §1

STK32C/YANK3 = molecular target: T15, STK32C/YANK3 (Homo sapiens, UniProt Q86UX6)
T15 construct: purchased Reaction Biology Corp
Experimental: as §1

MARK4 = molecular target: T16, MARK4 (Homo sapiens, UniProt Q96L34)
T16 construct: purchased Reaction Biology Corp
Experimental: as §1

MNK2 = molecular target: T17, MNK2 (Homo sapiens, UniProt Q9HBH9)
T17 construct: purchased Reaction Biology Corp
T17 sequence (Q9HBH9 whole entry): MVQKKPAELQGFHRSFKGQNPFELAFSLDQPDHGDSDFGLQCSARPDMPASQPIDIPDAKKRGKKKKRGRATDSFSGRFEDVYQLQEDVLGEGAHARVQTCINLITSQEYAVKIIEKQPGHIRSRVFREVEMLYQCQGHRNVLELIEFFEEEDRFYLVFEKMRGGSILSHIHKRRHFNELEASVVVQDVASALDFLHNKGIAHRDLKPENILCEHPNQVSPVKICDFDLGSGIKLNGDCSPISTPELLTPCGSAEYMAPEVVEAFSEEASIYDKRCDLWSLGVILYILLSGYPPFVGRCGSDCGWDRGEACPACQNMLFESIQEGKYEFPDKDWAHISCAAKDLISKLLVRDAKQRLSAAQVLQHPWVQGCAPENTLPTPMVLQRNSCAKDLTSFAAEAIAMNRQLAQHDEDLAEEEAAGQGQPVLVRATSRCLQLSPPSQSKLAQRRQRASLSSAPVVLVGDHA
Experimental: as §1

TYK2 = molecular target: T18, TYK2 (Homo sapiens, UniProt P29597)
T18 construct: purchased Reaction Biology Corp
T18 sequence (P29597 whole entry): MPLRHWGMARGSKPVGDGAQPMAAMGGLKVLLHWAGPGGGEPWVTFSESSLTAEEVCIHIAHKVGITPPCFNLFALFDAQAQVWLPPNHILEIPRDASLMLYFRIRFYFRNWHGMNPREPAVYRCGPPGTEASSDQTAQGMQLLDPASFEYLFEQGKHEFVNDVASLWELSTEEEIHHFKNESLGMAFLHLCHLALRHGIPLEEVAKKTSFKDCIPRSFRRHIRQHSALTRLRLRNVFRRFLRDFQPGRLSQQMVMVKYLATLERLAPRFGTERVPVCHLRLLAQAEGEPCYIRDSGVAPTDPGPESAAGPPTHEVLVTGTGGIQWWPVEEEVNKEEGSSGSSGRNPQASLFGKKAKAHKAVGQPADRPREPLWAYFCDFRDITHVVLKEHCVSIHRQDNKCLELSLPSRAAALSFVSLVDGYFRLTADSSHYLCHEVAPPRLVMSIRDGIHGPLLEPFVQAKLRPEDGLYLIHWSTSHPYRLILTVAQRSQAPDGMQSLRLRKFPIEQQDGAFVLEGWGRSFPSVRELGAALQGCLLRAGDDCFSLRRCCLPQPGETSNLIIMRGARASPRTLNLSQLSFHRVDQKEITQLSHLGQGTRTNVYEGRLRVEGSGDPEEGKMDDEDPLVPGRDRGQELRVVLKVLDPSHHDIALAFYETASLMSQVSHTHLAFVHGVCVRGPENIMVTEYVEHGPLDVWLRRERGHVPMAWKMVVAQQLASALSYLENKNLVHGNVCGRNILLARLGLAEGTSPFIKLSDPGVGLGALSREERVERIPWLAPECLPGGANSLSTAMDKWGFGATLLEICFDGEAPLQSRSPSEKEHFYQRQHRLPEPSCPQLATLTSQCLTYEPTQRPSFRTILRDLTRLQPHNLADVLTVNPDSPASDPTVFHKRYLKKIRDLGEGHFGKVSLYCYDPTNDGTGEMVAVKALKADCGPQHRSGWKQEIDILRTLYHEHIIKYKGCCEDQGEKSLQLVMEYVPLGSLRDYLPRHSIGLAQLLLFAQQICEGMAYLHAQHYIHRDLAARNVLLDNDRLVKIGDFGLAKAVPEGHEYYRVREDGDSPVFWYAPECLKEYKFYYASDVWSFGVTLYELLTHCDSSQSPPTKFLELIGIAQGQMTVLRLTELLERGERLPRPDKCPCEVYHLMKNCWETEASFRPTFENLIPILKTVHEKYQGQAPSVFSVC
Experimental: as §1

CDK1/cyclin E = molecular target: T19, CDK1/cyclin E (Homo sapiens, UniProt P06493)
T19 construct: purchased Reaction Biology Corp
Experimental: as §1

FES/FPS = molecular target: T20, FES/FPS (Homo sapiens, UniProt P07332)
T20 construct: purchased Reaction Biology Corp
Experimental: as §1

MEKK2 = molecular target: T21, MEKK2 (Homo sapiens, UniProt Q9Y2U5)
T21 construct: purchased Reaction Biology Corp
Experimental: as §1

TAOK3/JIK = molecular target: T22, TAOK3/JIK (Homo sapiens, UniProt Q9H2K8)
T22 construct: purchased Reaction Biology Corp
Experimental: as §1

PIM2 = molecular target: T23, PIM2 (Homo sapiens, UniProt Q9P1W9)
T23 construct: purchased Reaction Biology Corp
Experimental: as §1

NEK11 = molecular target: T24, NEK11 (Homo sapiens, UniProt Q8NG66)
T24 construct: purchased Reaction Biology Corp
Experimental: as §1

FER = molecular target: T25, FER (Homo sapiens, UniProt P16591)
T25 construct: purchased Reaction Biology Corp
Experimental: as §1

EPHB1 = molecular target: T26, EPHB1 (Homo sapiens, UniProt P54762)
T26 construct: purchased Reaction Biology Corp
Experimental: as §1

MNK1 = molecular target: T27, MNK1 (Homo sapiens, UniProt Q9BUB5)
T27 construct: purchased Reaction Biology Corp
Experimental: as §1

PKG1a = molecular target: T28, PKG1a (Homo sapiens, UniProt Q13976)
T28 construct: purchased Reaction Biology Corp
Experimental: as §1

CDC7/DBF4 = molecular target: T29, CDC7/DBF4 (Homo sapiens, UniProt O00311)
T29 construct: purchased Reaction Biology Corp
Experimental: as §1

MELK = molecular target: T30, MELK (Homo sapiens, UniProt Q14680)
T30 construct: purchased Reaction Biology Corp
Experimental: as §1

CAMKK1 = molecular target: T31, CAMKK1 (Homo sapiens, UniProt Q8N5S9)
T31 construct: purchased Reaction Biology Corp
T31 sequence (Q8N5S9 whole entry): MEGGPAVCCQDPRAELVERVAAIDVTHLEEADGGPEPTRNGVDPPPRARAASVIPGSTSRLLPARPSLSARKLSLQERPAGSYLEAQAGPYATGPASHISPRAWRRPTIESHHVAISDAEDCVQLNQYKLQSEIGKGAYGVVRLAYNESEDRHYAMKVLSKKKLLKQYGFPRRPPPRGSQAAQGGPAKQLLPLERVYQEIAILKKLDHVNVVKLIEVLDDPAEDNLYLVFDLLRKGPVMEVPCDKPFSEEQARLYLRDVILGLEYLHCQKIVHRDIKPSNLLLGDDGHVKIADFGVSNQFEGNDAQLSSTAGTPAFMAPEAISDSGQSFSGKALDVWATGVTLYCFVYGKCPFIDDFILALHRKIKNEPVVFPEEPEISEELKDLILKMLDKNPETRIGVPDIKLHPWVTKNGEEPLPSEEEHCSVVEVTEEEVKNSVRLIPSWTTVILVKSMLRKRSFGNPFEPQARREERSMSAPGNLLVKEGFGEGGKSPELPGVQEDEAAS
Experimental: as §1

CDK19/cyclin C = molecular target: T32, CDK19/cyclin C (Homo sapiens, UniProt Q9BWU1)
T32 construct: purchased Reaction Biology Corp
Experimental: as §1

PLK4/SAK = molecular target: T33, PLK4/SAK (Homo sapiens, UniProt O00444)
T33 construct: purchased Reaction Biology Corp
Experimental: as §1

CLK3 = molecular target: T34, CLK3 (Homo sapiens, UniProt P49761)
T34 construct: purchased Reaction Biology Corp
Experimental: as §1

MSK1/RPS6KA5 = molecular target: T35, MSK1/RPS6KA5 (Homo sapiens, UniProt O75582)
T35 construct: purchased Reaction Biology Corp
Experimental: as §1

CDK2/cyclin E2 = molecular target: T36, CDK2/cyclin E2 (Homo sapiens, UniProt P24941)
T36 construct: purchased Reaction Biology Corp
Experimental: as §1

SGK2 = molecular target: T37, SGK2 (Homo sapiens, UniProt Q9HBY8)
T37 construct: purchased Reaction Biology Corp
Experimental: as §1

DCAMKL2 = molecular target: T38, DCAMKL2 (Homo sapiens, UniProt Q8N568)
T38 construct: purchased Reaction Biology Corp
Experimental: as §1

BLK = molecular target: T39, BLK (Homo sapiens, UniProt P51451)
T39 construct: purchased Reaction Biology Corp
Experimental: as §1

For `Cc1ccc(NC(=O)c2ccc(CN3CCN(C)CC3)c(C(F)(F)F)c2)cc1-c1cnc2sc(N)nc2c1` [6r], the inhibition at 1 µM (MARK2/PAR-1Ba) was 0%, the inhibition at 1 µM (MEK2) was 7.1% and the inhibition at 1 µM (NIM1) was 1.3%. It also gave an inhibition at 1 µM (IKKb/IKBKB) of 0%, an inhibition at 1 µM (SIK2) of 5.6% and an inhibition at 1 µM (c-MER) of 6.1%. For the same molecule, the inhibition at 1 µM (MEKK6) was 8%, the inhibition at 1 µM (PAK3) was 8.3% and the inhibition at 1 µM (MEK3) was 5.2%. It also gave an inhibition at 1 µM (MAST3) of 0%, an inhibition at 1 µM (ERK1) of 11.7% and an inhibition at 1 µM (STK39/STLK3) of 19.2%. It also gave an inhibition at 1 µM (PKCd) of 10.1%, an inhibition at 1 µM (EPHA6) of 39.9% and an inhibition at 1 µM (STK32C/YANK3) of 0.6%. It also gave an inhibition at 1 µM (MARK4) of 2%, an inhibition at 1 µM (MNK2) of 0% and an inhibition at 1 µM (TYK2) of 7.8%. It also gave an inhibition at 1 µM (CDK1/cyclin E) of 0%, an inhibition at 1 µM (FES/FPS) of 39.7% and an inhibition at 1 µM (MEKK2) of 11.1%. It also gave an inhibition at 1 µM (TAOK3/JIK) of 17.8%, an inhibition at 1 µM (PIM2) of 0.8% and an inhibition at 1 µM (NEK11) of 18.3%. It also gave an inhibition at 1 µM (FER) of 0%, an inhibition at 1 µM (EPHB1) of 65.7% and an inhibition at 1 µM (MNK1) of 0%. The inhibition at 1 µM (PKG1a) was 10.1%, the inhibition at 1 µM (CDC7/DBF4) was 0.8% and the inhibition at 1 µM (MELK) was 17.1%. The inhibition at 1 µM (CAMKK1) was 7.2%, the inhibition at 1 µM (CDK19/cyclin C) was 12.8% and the inhibition at 1 µM (PLK4/SAK) was 10.4%. For the same molecule, the inhibition at 1 µM (CLK3) was 0%, the inhibition at 1 µM (MSK1/RPS6KA5) was 0% and the inhibition at 1 µM (CDK2/cyclin E2) was 8.3%. It also gave an inhibition at 1 µM (SGK2) of 3.8%, an inhibition at 1 µM (DCAMKL2) of 0% and an inhibition at 1 µM (BLK) of 84.8%.
